Entries after “also recorded” stand apart in the source; their conditions may differ.
How the values were obtained:
neuronal cells = assay: Intracellular calcium level [Ca2+]i in primary neurons (Fura-2 fluorescence ratio 340/380 nm); assay type: cell-based, rat; details: 200 μM stimulant and 2.5 mM Ca2+, without sorbicillactone A
Text: Material: The same materials as described in Perovic et al. (1998, Mech. Ageing Dev. 101:1-19) were used. Fura-2-acetoxymethylester (Fura-2-AM) was obtained from Molecular Probes (Leiden, The Netherlands), Dulbecco's modified Eagle's Medium with 4.5 g/L glucose (DMEM/HG), L-glutamic acid (L-Glu), and serotonin (5-HT) from Sigma-Aldrich (Taufkirchen, Germany) and the antibodies mouse-anti-neurofilament (68 kDa) and mouse-anti-glial-fibrillary-acidic-protein (GFAP) from Roche Diagnostics (Mannheim, Germany). Sorbicillactone A of the batch: 2208/2a was used.
Primary neurons: The cortical cell culture was produced from the brains of 17-18 day-old rat embryos, according to a modified procedure [Freshney (1987) Culture of specific cell types. In: Culture of Animal Cells. A Manual of Basic Technique, A. R. Liss, New York, S. 257-288; Perovic et al. (1994) Eur. J. Pharmacol. (Mol. Pharmacol. Sec.) 288:27-33]. After the isolation, the cerebral-hemispheres were put into Hank's Balanced Salt Solution (HBSS) without Ca^2+ and Mg^2+, and the neuronal cells were subsequently dissociated in HBSS using 0.025% (w/v) trypsin (10 min.; 37° C.). The proteolytic reaction was stopped with 10% (v/v) foetal calf serum (FCS). The single-cell suspensions were centrifuged, and the resulting pellet was taken up into Dulbecco's modified Eagles's Medium with 4.5 g/L glucose (DMEM/HG) (contains 2 mM L-glutamine, 100 mU/L insulin, and 10% (v/v) FCS). The cells were plated in a chamber with poly-L-lysine (5 μg/mL, 300 μl/cm^2) in a cell density of 2.0×10^5 cells/cm^2. After two days the DMEM/HG/10%-FCS-medium was removed and replaced with DMEM/HG/serum-free medium. Two weeks after the isolation, the immune staining took place with anti-neurofilament (68 kDa) as a marker for neurons, and anti-GFAP as a marker for glial cells. The cultures contained >80% neurons; the residual 20% were GFAP-positive cells, mainly astrocytes (Ushijima et al. (1995) Eur. J. Neurosci. 7:1353-9). The neurons were held in an atmosphere of 95% air and 5% CO2 at 37° C.
Loading of neurons with Fura-2-AM: The intracellular Ca^2+-concentration ([Ca^2+]i) was determined by fluorescence measurements. The ratio of the absorption of the Ca^2+-indicator dye Fura-2-AM at 340 and 380 nm (Grynkiewicz et al. (1985) J. Biol. Chem. 260:3440-50) was decisive. The neurons were loaded with 6 μM Fura-2-AM in DMEM/HG/serum-free medium (supplemented with 1% (w/v) bovine serum albumin) at 37° C. for 60 min. After incubation, the cells were washed two times with medium, and further incubated for 45 min at 37° C.
Calcium-calibration curve: A calcium-calibration curve was produced according to the methods of Grynkiewicz et al. (1985, J. Biol. Chem. 260:3440-50). Fluorescence pictures were obtained for each buffer at 340 and 380 nm. The quotient from both fluorescence spectra (340/380 nm) was calculated, and depicted as a calibration curve. The quotient (340/380 nm [ratio-value]) of 1.0 corresponds to 228 nM [Ca^2+]i.
Changes of the calcium level in neurons: In all experimental settings, the cells were first loaded with Fura-2-AM, and subsequently stimulated with different substances (in Locke's solution; 154 mM NaCl; 5.6 mM KCl; 3.6 mM NaHCO3; 5.6 mM glucose, and 10 mM Hepes; pH 7.4; without CaCl2). Sorbicillactone A was dissolved in a concentration of 10 mg/mL in 100% (v/v) DMSO, and stored at −20° C. In the first setting, the neurons were stimulated for 5 min with 0.1% (v/v) DMSO (control); after 10 min 200 μM L-glutamic acid (L-Glu), 200 μM serotonin (5-HT), and 2.5 mM CaCl2 were added to the cells. In a second setting, the effect of L-Glu, 5-HT, and 2.5 mM CaCl2 on the calcium level of pre-incubated neurons (each 5 min with 10 μg/mL sorbicillactone A) was tested. In all experiments, the [Ca^2+]i-level was measured for at least 20-25 min. […]

[1] = test system: L5178Y-mouse lymphoma cells (ATCC CRL 1722); assay: Apoptosis detection (Cell Death Detection ELISA plus); assay type: cell-based; details: for MW ± SD (OD) / % of the control (negative): 4 hours incubation; for MW ± SD (OD): 405 nm; for % of the control (negative): negative control = 100%
Description: Material: RPMI1640-medium, Hepes buffered, was obtained from Sigma-Aldrich (Taufkirchen, Germany), foetal calf serum (FCS) from Gibco (Karlsruhe, Germany), and Cell Death Detection ELISA plus from Roche (Mannheim, Germany, Cat. No. 1774425). Sorbicillactone A of the batch: 2208/2a was used.
Incubation and preparation of the cells: The L5178Y-mouse lymphoma cells (ATCC CRL 1722)) were counted, and adjusted to a number of cells of 10^4 cells/mL. The sorbicillactone-A- and dihydrosorbicillactone-A-stock solution (10 mg/mL in DMSO) was diluted with medium (RPMI/Hepes with 10% FCS) to concentrations of 60, 20, and 6 μg/mL. In a 96-well-culture plate, 100 μl cell suspension (˜10^3 cells) were each pipetted to each of the 100 μl of the different dihydrosorbicillactone-A- and sorbicillactone-A-solutions. RPMI1640-medium without dihydrosorbicillactone and sorbicillactone A was used as a negative control. The final concentrations were 30, 10, and 3 μg/mL sorbicillactone A and dihydrosorbicillactone A. Four parallel settings of each sample were analysed. The cells were incubated for 4 hours at 37° C. After the incubation, the culture plate was centrifuged at […] (˜1200 rpm) for 10 min at room temperature. The supernatant was carefully pipetted off, and the cells were each overlayered with 200 μl lysis-buffer (Roche-Kit). Then, the cells were lysed for 30 min at room temperature. After the lysis, the culture plate was again centrifuged at 200×g (˜1200 rpm) for 10 min at room temperature.
ELISA: Two strips with eight wells each were taken from the streptavidin-ELISA-plate of the Roche-kit. 20 μl of the supernatant of a cell-lysis (see above) were added into each well. In doing so, the samples with 30 or 10 μg/mL of sorbicillactone A and dihydrosorbicillactone A were loaded as 4-fold, and all other as duplicate determinations. In addition to these sample, a positive control (DNA-histone-complex) was loaded. Then, 80 μl of immune reagent were added into each well. This solution consisted of incubation buffer, anti-histone-biotin, and anti-DNA-peroxidase. The incubation buffer was used as a blank value. The ELISA-plate was incubated for 2 hours in a shaking incubator at room temperature. Them the supernatants were carefully removed, and the wells were each washed 3× with 250 μl of the incubation buffer. After the washing, 100 μl of ABTS-solution were added into each “well”. Subsequently, the cells were incubated for 30 min in the dark at room temperature. The measurement took place in a multiscan at an emission wavelength of 405 nm.

[2] = Relative activity compared with sorbicillactone A (test not specified)

Row | Compound | increase of the 340-/380-nm-values (neuronal cells) | increase of the 340-/380-nm-values, control assumed to be 100% (neuronal cells) [%] | MW ± SD (OD) ([1]; 3 μg/mL) | % of the control (negative) ([1]; 3 μg/mL) [%] | MW ± SD (OD) ([1]; 10 μg/mL) | % of the control (negative) ([1]; 10 μg/mL) [%] | MW ± SD (OD) ([1]; 30 μg/mL) | % of the control (negative) ([1]; 30 μg/mL) [%] | induction of apoptosis ([1]; 3, 10, and 30 μg/mL, 4 hours of incubation) | activity relative to sorbicillactone A [2]
1 | N[C@@H](CCC(=O)O)C(=O)O [L-glutamic acid] | 1.715±0.081 | 307.1 | – | – | – | – | – | – | – | –
2 | NCCc1c[nH]c2ccc(O)cc12 [Serotonin, serotonin] | 0.971±0.112 | 219.9 | – | – | – | – | – | – | – | –
3 | C/C=C/CC/C(O)=C1/C(=O)C(C)=C(O)[C@@]2(C)OC(=O)[C@@](C)(NC(=O)/C=C/C(=O)O)[C@@H]12 [dihydrosorbicillactone A] | – | – | 0.016 ± 0.003 | 76.2 | 0.013 ± 0.002 | 61.9 | 0.016 ± 0.004 | 76.2 | did not result in an induction of apoptosis; also recorded: did not induce apoptosis | five-fold less active

— US20070135515A1, “Method for producing sorbicillactone a” (priority 2004, published 2007)
